Results: the METLIN SMRT retention time set (Domingo-Almenara et al. 2019)

Experiment: gradient 5% acetonitrile 3 min, to 50% in 2 min, to 85% in 15 min, held 3 min, 100 µL/min
Conditions: column: Zorbax Extend-C18 2.1 x 50 mm; eluents: water / acetonitrile, 0.1% formic acid
Outline: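 The mobile phases were water and acetonitrile, each with 0.1% formic acid, pumped at 100 μL/min through a Zorbax Extend-C18 column (2.1 × 50 mm, 1.8 μm). Pure standards were injected as mixtures of ~100 molecules and detected by a quadrupole time-of-flight mass spectrometer in positive and negative ionization mode. Retention time came from computationally picked adduct peaks, each inspected by hand.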

Structure (SMILES)	RP-LC retention time [s]
Cc1ccc(Cl)cc1NC(=O)Cn1nc(N2CCOCC2)c2ccccc2c1=O	856
COC(=O)c1ccc(CN2CCN(c3cnn4cnnc4c3)CC2)cc1	548
CSc1cccc(NC(=O)NC2CCN(c3ccc(F)c(C)c3)C2=O)c1 (centres undefined)	867
CC(C)C(=O)N1CCCC1c1nc(CCOCC2CC2)no1 (centres undefined)	733
O=C(NCCC1CCN(C(=O)Nc2cc(F)ccc2F)CC1)c1ccco1	758
CC(C)Cc1ccc(S(=O)(=O)N2CCN(c3ccccn3)CC2)cc1	840
Cc1c(Cl)cccc1S(=O)(=O)N1CCc2nc(-c3ccc(F)cc3)ncc2C1	1250
CN(C)C(=O)c1cn(C2CN(C(=O)Nc3ccccc3F)C2)nn1	629
CC(C)C(=O)N1CCCc2ccc(NC(=O)c3ccc(F)c(F)c3)cc21	871
O=[N+]([O-])c1c(NCCO)cc(Nc2ccc3c(c2)OCCO3)c2nonc12	660
CCCC(=O)N1C[C@H]2C[C@H](C1)[C@H]1CCCC(=O)N1C2	601
Cc1ccn(-c2cc(Cl)ccc2[C@@H](Oc2cc(-c3ccc(C[C@H](N)C(=O)O)cc3)nc(N)n2)C(F)(F)F)n1	834
Cc1ccccc1Cn1c(C)c(CNCCc2ccco2)c(C(=O)O)c1C	738
CC(C)C(=O)N1CCc2cc(-c3ccc(C(=O)N4CCN(C(=O)c5ccco5)CC4)cc3)ccc21	830
Cn1cc(C(=O)N2CC(c3noc(C4CCCN4CC4CC4)n3)C2)cn1 (centres undefined)	549
O=C(/C=C/c1cccnc1)c1ccccc1O	817
COc1cccc(C2Cn3nnc(-c4nc(-c5ccc(Cl)cc5)no4)c3CO2)c1 (centres undefined)	1220
COc1ccc(C(=O)NC2CCN(c3cc(-c4cccs4)[nH]n3)C2)cc1F (centres undefined)	720
COc1ccc(CN2CCC3(CC2)CC(C)(O)CCO3)c(OC)c1 (centres undefined)	607
CCN1CCCn2nc(C3CCN(S(=O)(=O)c4cnc[nH]4)CC3)cc2C1=O	592

Structure (SMILES)	RP-LC retention time [s]
O=C(Nc1ccon1)c1ccc(-n2cccn2)nn1	659
CCOc1ccc(-c2nc(Cc3noc(-c4ccncc4)n3)c(C)o2)cc1	1010
CCCNC(=O)c1cn(-c2ccc(NC(=O)CC)cn2)cn1	636
Cn1cc(-c2cnn3c(N)c(Br)c(C4CCCNC4)nc23)cn1 (centres undefined)	613
CC1Cn2cc(C(=O)NCCCN3CCOCC3)c(=O)c3c(Cl)ccc(c32)O1 (centres undefined)	624
COc1ccc(NC(=O)N2CC3CCCN3c3ccccc32)c(OC)c1 (centres undefined)	1090
C=CCNC(=O)N1CCCN(C2=NS(=O)(=O)C(c3ccc(F)cc3)=C2C)CC1	736
Cc1ccc2cc(CN3CCC4(CCC4O)CC3)c(=O)[nH]c2c1 (centres undefined)	590
Cc1ccc(S(=O)(=O)Nc2ccc(C3(C(=O)NCC4CCCO4)CC3)cc2)cc1 (centres undefined)	824
COc1ccc(NC(=O)C2CCN(S(=O)(=O)c3cc(-c4noc(C5CC5)n4)cs3)CC2)cc1	960
CCn1ccc(C(=O)N2CCN(c3cc(-c4ccccc4)[nH]n3)CC2)n1	689
Cc1cc(N2C=C(C(=O)N3CCCC3)S(=O)(=O)c3ccc(F)cc32)ccc1F	854
COC(=O)c1cc(OCC(=O)Nc2ccc(OC)cc2)c2cc(OC)ccc2n1	775
Cc1ccc2[nH]cc(CCNC(=O)CCC(=O)N3Cc4cccn4-c4ccccc43)c2c1	868
COCCCNC(=O)N1CCCC1c1nc(-c2cccc(Cl)c2)no1 (centres undefined)	853
COc1ccc(C(=O)N2CCC(n3c(-c4ccoc4)nc4cccnc43)C2)cc1F (centres undefined)	714
CCc1cc(C(=O)Nc2cc(Cl)ccc2OC)nc2ccnn12	1210
Cc1cccc(-c2nnc(-c3cccc(S(=O)(=O)N4CCCCC4)c3)o2)c1	1140
CCc1ccccc1NC(=O)C1(C)Oc2cccnc2N(C(C)C)C1=O (centres undefined)	1010
CC(C)Oc1ccccc1CN1CCC2(CC1)CC(C)(O)CCO2 (centres undefined)	627

Structure (SMILES)	RP-LC retention time [s]
CC(=O)Nc1ccc(S(=O)(=O)N2CCCn3nc(-c4cccc(Cl)c4)cc3C2)cc1	910
O=C(Nc1ccc2c(c1)OCCO2)C1CCCN(c2ncc(-c3cccc(F)c3)cn2)C1 (centres undefined)	1040
COc1ccc(-c2csc(SCc3ccc(C(=O)N4CCOCC4)o3)n2)cc1OC	783
COCCNCc1ccc(-c2cc(Cl)ccc2Cl)o1	684
Cc1ccnc(NS(=O)(=O)c2ccc(NC(=O)C3COc4ccccc4O3)cc2)n1 (centres undefined)	711
Cc1cccc(NC(=O)Cn2c(C(C)C)nc3c(c2=O)CCN(Cc2ccccc2)C3)c1	728
Cc1ccc(CNC(=O)CCc2nc(N3CCCCC3)c3c(-c4ccc(F)cc4)noc3n2)o1	1030
CCOC(=O)c1cc(S(=O)(=O)N2CCCC2C(=O)N2CCC3(CC2)OCCO3)cn1C (centres undefined)	720
O=C(NC1CC1)[C@@H]1C[C@H](Oc2cccnc2)CN1C(=O)c1cnccn1	526
CC(C)(Oc1ccc(Cl)cc1)C(=O)NCc1nnnn1C1CCCCC1	945
O=C(NCCc1noc(C2CC2)n1)c1ccc(Cl)s1	795
CC1CCCCN1S(=O)(=O)c1cc(-c2nnc(C3CC3)o2)co1 (centres undefined)	896
Cc1nnc(-c2ccc3ccn(CC(=O)N4CCN(c5ccccc5F)CC4)c3c2)o1	867
O=C(CN1C(=O)CN(C(=O)Nc2ccccc2)c2ccccc21)NCc1ccccn1	587
CCc1nc(-c2csc(S(=O)(=O)N3CCCC(C(=O)N4CCc5ccccc5C4)C3)c2)no1 (centres undefined)	1060
Cc1ccc(CN2C(=O)COc3ccc(C(=O)NC(C)(C)C)cc32)cc1	910
O=C(Cc1csc(NC(=O)c2ccco2)n1)Nc1nc2ccc([N+](=O)[O-])cc2s1	797
COc1ccc(C(=O)NCc2nc3ccccc3[nH]2)cc1	555
CCOC(=O)C1=C(N)Oc2c(c(=O)[nH]c3ccc(C)cc23)C1c1ccc(OC)cc1 (centres undefined)	881
CCc1noc(-c2cc(=O)n(CC(=O)NC(C)CC)c3ccccc23)n1 (centres undefined)	816

Other lines, results leading:

RP-LC retention time [s]	Structure (SMILES)
804	Cc1ccc2nc(C(=O)N3CCN(c4cccc(C)c4C)CC3)cn2c1
687	CCN1CCCn2cc(S(=O)(=O)Nc3ccccc3F)cc2C1=O
574	COc1ccc(OC)c(CN2C[C@@H]3C(=O)N(C)C(=O)[C@@H]3C2)c1
1100	O=C(Nc1cccc(Cl)c1)c1cn(CC2CCCO2)cc2c(=O)n(-c3ccccc3)nc1-2 (centres undefined)
644	Cc1nccn1CC(=O)N1CCCn2cc(-c3ccccc3F)nc21
809	CC(C)CCNC(=O)C1CC(=O)N(CCc2c[nH]c3ccc(Cl)cc23)C1 (centres undefined)
747	Cc1ccccc1NC(=O)N1CCC2(CC1)NC(=O)c1ccc(F)cc1N2C
1020	Cc1ccc(-n2cccc2CC(=O)NC2CCCCC2)cc1
990	Cc1ccc(N2CC(c3nc(-c4ccc5c(c4)oc(=O)n5C(C)C)no3)CC2=O)cc1 (centres undefined)
931	CCCN(CC1CCOC1)S(=O)(=O)c1cccc(C)c1 (centres undefined)
766	O=C(NCc1ccc2c(c1)OCO2)c1ccc2c(cnn2CC(=O)N2CCCCCC2)c1
1030	Cc1ccccc1CNC(=O)C1(C)CCN(S(=O)(=O)c2ccc(Br)cc2)CC1
977	CC(C)NS(=O)(=O)c1ccc(Cl)c(-c2nnc(-c3ccccc3)o2)c1
759	O=C(Nc1cnn(-c2ncc(N3CCSCC3)cn2)c1)NC1CCCCC1
714	Cc1nnc(N2CCCC(C(=O)NCCCOC(C)C)C2)c2nn(-c3ccc(Cl)cc3)c(C)c12 (centres undefined)
976	COc1cc(-c2noc(C3CC(=O)N(c4ccc(C)c(F)c4)C3)n2)cc(OC)c1OC (centres undefined)
1110	Cc1noc(-c2cccn2Cc2cccc(Cl)c2)n1
1220	COc1cccc(-c2nc(C3CCN(S(=O)(=O)c4ccc5c(c4)CCC5)CC3)no2)c1
804	N#Cc1cnc2ccc(F)cc2c1N1CCC(C(=O)Nc2ccc3c(c2)OCCO3)CC1
638	O=C(Nc1c(-c2ccc(F)cc2)nc2ccccn12)c1ccccc1
640	Cc1noc([C@@H]2CN(C(=O)c3cc(C)oc3C)C[C@H]2CO)n1
809	Cc1cc(C(=O)N2CC(F)(F)C[C@H]2c2nc(C3CC3)no2)on1
578	COc1ccc(Cl)cc1C(=O)N1CCN=C1SCc1cccnc1
767	Cc1cccc(CNC(=O)C2(C)Cn3cnc(C(=O)NC4CCCC4)c3C(=O)N2C2CC2)c1 (centres undefined)
620	Cn1c(SCC(=O)c2ccc(F)cc2)nnc1-c1ccncc1
662	O=C(CN1C(=O)CCc2cc(Br)ccc21)NCCN1CCc2ccccc2C1
1090	CCOc1ccc(C2Cn3nnc(-c4nc(-c5ccccc5OC)no4)c3CO2)cc1 (centres undefined)
949	Cc1ccc(NC(=O)NC2CCN(c3ccc(C)c(C)c3)C2=O)c(C)c1 (centres undefined)
979	Cn1nc(-c2nc(-c3ccc(F)cc3)no2)c2c1CCN(C(=O)NC1CCCCC1)C2
